US6762200B2, “Oxa(thia)zolidine derivative and anti-inflammatory drug” (Nippon Soda Co. Ltd., priority 2000, dated 2004)

Biological target: T1, IV-cPLA(2) (Homo sapiens, UniProt P47712)
T1 sequence (P47712 1-749): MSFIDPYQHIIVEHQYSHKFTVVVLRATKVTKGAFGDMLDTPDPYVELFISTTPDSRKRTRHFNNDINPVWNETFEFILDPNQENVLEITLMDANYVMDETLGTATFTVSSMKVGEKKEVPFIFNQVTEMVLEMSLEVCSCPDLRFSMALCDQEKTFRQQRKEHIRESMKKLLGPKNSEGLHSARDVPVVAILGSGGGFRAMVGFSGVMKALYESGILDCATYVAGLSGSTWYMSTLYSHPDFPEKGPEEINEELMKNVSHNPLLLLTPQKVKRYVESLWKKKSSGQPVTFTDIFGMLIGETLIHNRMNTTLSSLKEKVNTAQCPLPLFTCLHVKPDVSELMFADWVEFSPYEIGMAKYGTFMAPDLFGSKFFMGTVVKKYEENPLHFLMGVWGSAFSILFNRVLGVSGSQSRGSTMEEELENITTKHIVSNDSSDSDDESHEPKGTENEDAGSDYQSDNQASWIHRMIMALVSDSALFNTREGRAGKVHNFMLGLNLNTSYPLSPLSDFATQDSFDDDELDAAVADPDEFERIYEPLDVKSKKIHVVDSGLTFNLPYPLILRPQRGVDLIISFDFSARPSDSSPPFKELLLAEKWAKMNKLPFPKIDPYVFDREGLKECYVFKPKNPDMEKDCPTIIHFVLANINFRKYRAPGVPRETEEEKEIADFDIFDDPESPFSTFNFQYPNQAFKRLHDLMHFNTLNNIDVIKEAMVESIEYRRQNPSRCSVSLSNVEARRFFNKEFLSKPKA
Test: PLA(2) activity, hydrolysis of bis-BODIPY FL C11-PC in activated U937 cells
Format: cell-based
Method: The PLA(2) activity was measured by quantitatively analyzing the fluorescent product of hydrolysis from 1,2-bis-(4,4-difluoro-5,7-dimethyl-4-bora-3a,4a-diaza-s-indecene-3-undecanoyl)-sn-glycero-3-phosphocholine (hereinafter referred to bis-BODIPY®FL C11—PC, Molecular Probes, Inc., B-7701) using activated U937 cells (human monoblastic lymphoma cell line) by inflammatory stimulus (Meshulam, T. et al., The journal of Biological Chemistry 267 (30): 21465-21470 (1992); and Solito, E. et al., British Journal of Pharmacology 124: 1675-1683 (1998).). The substrate bis-BODIPY®FL C11—PC is incorporated into cellular membranes, the proximity of the BODIPY FL fluorophores on adjacent phospholipid acyl chains causes fluorescence self-quenching. Separation of the fluorophores upon hydrolytic cleavage of one of the acyl chains by PLA(1) or the PLA(2) results in increased fluorescence. In the activated U937 by inflammatory stimulus, it is shown that this substrate should be cleaved enzymatically by IV-cPLA(2) from the feature of its behaviors including sensitivity profiles against the inhibitors.
The human cell line U937 was purchased from Dai-Nippon Pharmaceuticals Co., Ltd. The cells were maintained by transferring every 3-4 days into RPMI 1640 medium (Sigma Chemical Co., R6504) supplemented with heat-inactivated 10% fetal bovine serum (Fetal Bovine Serum, Sigma Chemical Co., F 4135) in a 5% CO2 humidified atmosphere at 37° C. The cells were transferred into the culture medium described above, containing 1.2% (v/v) dimethylsulfoxide (hereinafter referred to as […], Nacalai tesque Co., Ltd., D 134-45), and pre-cultured for 96 to 120 hours so as to differentiate into the macrophage-like cells to be provided for the assay. The macrophage-like cells were collected and washed by centrifugation with the Assay medium (Dulbecco's phosphate buffered saline (hereinafter referred to as PBS)-2.2 mM glucose-2.5 μm albumin). Then, Phorbol 12-Myristate 13-Acetate (hereinafter referred to as TPA, Sigma Chemical Co., P 8139) was added to the Assay medium to be 1×10^−8M as the final concentration. Then, the macrophage-like cells were further cultured for an hour to be activated (Rzigalinski, B. A. & Rosenthal, M. D., Biochimica et Biophysica Acta 1223: 219-225 (1994); and Gonchar, M. V. et al., Biochemical and Biophysical Research Communication, 249: 829-832 (1998).).
For preparing substrate liposome suspension, bis-BODIPY®FL C11—PC was combined with phosphatidylcholine (Sigma Chemical Co., P 7769) at 1:9 molar ratio in chloroform, and dried under nitrogen flow. The dried mixture was suspended with the Assay medium at 100 μg/mL, voltexed and sonicated for an hour on ice under dark condition.
The test compound was dissolved with DMSO at 30 mM, and the solution diluted with either DMSO or the Assay medium before addition into the reaction mixture. The DMSO concentration in the reaction mixture was controlled so as to be no more than 0.1%. The 30-fold concentration of test compound solution was put into each well of MICRPTEST™ Tissue Culture Plate, 96 Well (Falcon, 3072) at a rate of 2.5 μL/well. To the respective well was added 25 μL/well of the activated U937 cell suspension ([…]), and the cells were pre-cultured for 120 min. at 37° C. in a 5% CO2 atmosphere incubator. 47.5 μL/well of the substrate liposome suspension with 1.5×10^−6M A23187 (Sigma Chemical Co., C 7522) was added into each well to prepare 75 μL/well of the total reaction mixture, followed by culture for 30 min. under the same conditions with shielding against light. 100 μL/well of 0.1% GEDTA (Dojindo Laboratories Co. Ltd., 348-01311) methanol solution was added into each well and mixed to stop the reaction. […]

Structure (SMILES)	Inhibition (%) (0.1 μM)	further results
CC1C(c2ccc(Cl)cc2)SC(=NC#N)N1Cc1ccc(Cl)nc1 (stereo not shown) [Compound 1-5]	66	–
CC1NC(=N[N+](=O)[O-])SC1c1ccc(Cl)cc1 (stereo not shown) [Compound 1-11]	88	–
CN=C1OC(c2ccc(C)cc2)C(C)N1C(=O)Nc1ccc(Cl)cc1 (stereo not shown) [Compound 1-25]	100	–
CCOC(=O)CN=C1NC(C)C(c2ccc(C)cc2)S1 (stereo not shown) [Compound 1-35]	57	–
CC(=O)N=C1SC(c2ccccc2)C(C)N1CC(OC(C)=O)c1ccccc1 (stereo not shown) [Compound 1-42]	94	–
C=CC(=O)N=C1SC(c2ccc(C)cc2)C(C)N1C(=O)NC1CCCCC1 (stereo not shown) [Compound 1-49]	91	–
CCNC(=O)N1C(=NNc2ccccc2)SC(c2ccc(Cl)cc2)C1C (stereo not shown) [Compound 1-77]	–	Inhibition (%) (1 μM): 100%
CC1C(c2ccc(Cl)cc2)SC(=O)N1C(=O)Nc1ccncc1 (stereo not shown) [Compound 2-21]	–	Inhibition (%) (1 μM): 100%
CC1C(c2ccc(Cl)cc2)SC(=O)N1C(=O)NN(C)C (stereo not shown) [Compound 2-22]	100	–
CC1C(c2ccc(Cl)cc2)SC(=O)N1C(=S)NCCN1CCOCC1 (stereo not shown) [Compound 2-37]	63	–
CC1C(c2ccc(Cl)cc2)SC(=O)N1C(=O)NC(=O)c1ccccc1 (stereo not shown) [Compound 2-38]	–	Inhibition (%) (1 μM): 87%
Cc1ccc(C2OC(=O)N(C(=O)NCCCl)C2C)cc1 (stereo not shown) [Compound 2-48]	77	–
COS(=O)(=O)NC(=O)N1C(=O)OC(c2ccc(C)cc2)C1C (stereo not shown) [Compound 2-56]	92	–
CC1C(c2ccc(-c3ccccc3)cc2)OC(=O)N1C(=S)NC1CCCCC1 (stereo not shown) [Compound 2-75]	83	–
O=C(NC1CCCCO1)N1CC(c2ccc(-c3ccccc3)cc2)OC1=O (stereo not shown) [Compound 2-78]	–	Inhibition (%) (0.01 μM): 100%
Cc1ccc(C2OC(=O)N(C(=O)NC(=O)c3c(F)cccc3F)C2C)cc1 (stereo not shown) [Compound 2-79]	55	–

Structure (SMILES)	Inhibition (%) (0.1 μM)	further results
CC1C(c2cccc3ccccc23)OC(=O)N1C(=O)NC1CCCCO1 (stereo not shown) [Compound 2-113]	–	Inhibition (%) (1 μM): 72%
CC1C(c2ccc3ccccc3c2)OC(=O)N1C(=O)NC1CCCCO1 (stereo not shown) [Compound 2-115]	63	–
CCONC(=O)N1C(=O)OC(c2ccc(Oc3ccccc3)cc2)C1C (stereo not shown) [Compound 2-116]	54	–
CC1C(c2ccc(Cc3ccccc3)cc2)OC(=O)N1C(=O)NC1CCCCO1 (stereo not shown) [Compound 2-117]	82	–
CCN(C(C)C)S(=O)(=O)NC(=O)N1C(=O)OC(c2ccc3ccccc3c2)C1C (stereo not shown) [Compound 2-126]	72	–
O=C(NC1CCCCO1)N1CC(c2ccc3ccccc3c2)OC1=O (stereo not shown) [Compound 2-130]	68	–
COC1CCCC(NC(=O)N2C(=O)OC(c3ccc4ccccc4c3)C2C)O1 (stereo not shown) [Compound 2-133]	–	Inhibition (%) (1 μM): 75%
CC1C(c2cccnc2)SC(=O)N1C(=O)NC1CCCCC1 (stereo not shown) [Compound 2-145]	72	–
CC1C(c2cnc3ccccc3c2)OC(=O)N1C(=O)NC1CCCCO1 (stereo not shown) [Compound 2-151]	–	Inhibition (%) (0.01 μM): 64%
CC1C(c2ccccc2)OC(=O)N1C(=O)NC1CCCCO1 (stereo not shown) [Compound 2-155]	95	–
Cc1ccc(C2OC(=O)N(C(=O)NC3CCSCC3)C2C)cc1 (stereo not shown) [Compound 2-157]	96	–
Cc1ccc(C2OC(=O)N(C(=O)NC3CCOCC3)C2C)cc1 (stereo not shown) [Compound 2-159]	95	–
Cc1ccc(C2OC(=O)N(C(=O)NN3CCN(C)CC3)C2C)cc1 (stereo not shown) [Compound 2-161]	–	Inhibition (%) (1 μM): 65%
CC1C(c2ccccc2)OC(=O)N1C(=S)NC1CCCCC1 (stereo not shown) [Compound 2-180]	100	–
Cc1ccc(C2OC(=O)N(C(=S)NC3CCCCC3)C2C)cc1C (stereo not shown) [Compound 2-182]	91	–
